{"source": "patent US6073962A", "about": "(priority 1994, dated 2000)", "test_system": "mouse", "settings": "in vivo, po", "data": [{"compound": "NNC(=O)NN.NNC(=O)NN.NNC(=O)NN.O=[N+]([O-])[O-].O=[N+]([O-])[O-].[Zn+2]", "note": "[Ex. 25, Zn.3(CDH).2(NO3)]", "values": [{"measurement": "Death rate of 30 mg adm.", "result": "0/10"}, {"measurement": "Death rate of 300 mg adm.", "result": "3/10"}, {"measurement": "Death rate of 2000 mg adm.", "result": "10/10"}, {"measurement": "LD50 level", "result": "> 300"}]}, {"compound": "NN.NN.O=[N+]([O-])[O-].O=[N+]([O-])[O-].[Zn+2]", "note": "[Ex. 1, Zn.2(N2 H4).2(NO3)]", "values": [{"measurement": "Death rate of 30 mg adm.", "result": "0/10"}, {"measurement": "Death rate of 300 mg adm.", "result": "0/10"}, {"measurement": "Death rate of 2000 mg adm.", "result": "10/10"}, {"measurement": "LD50 level", "result": "> 300", "unit": "mg/kg"}]}]}
